Test results as given in patent US7692030B2, “Conjugates of artemisinin-related endoperoxides and hydrazone derivatives for the treatment of cancer” (University of Washington, priority 2006, dated 2010).

Assays:
Test in all cases: NCI DTP human tumor cell line screen (SRB)
Assay type in all cases: cell-based
TK-10 = settings: Renal Cancer, 10 μM, 48 h
Method: (§1) Representative compounds of the invention, prepared as described in EXAMPLES 1-6, were submitted to the Developmental Therapeutics Program of the United States National Cancer Institute (NCl) to screen for anti-cancer activity. The anti-cancer activities of the six compounds were tested against approximately 60 human tumor cell lines representing leukemia, melanoma, and cancers of the lung, colon, breast, ovary, kidney, prostate, and brain. The following screening methodology was provided by the NCl. […] For experimental screens, cells were inoculated into 96 well microtiter plates in 100 μL at plating densities ranging from 5,000 to 40,000 cells/well depending on the doubling time of individual cell lines. After cell inoculation, the microtiter plates were incubated at 37° C., 5% carbon dioxide, 95% air and 100% relative humidity for 24 hours prior to addition of the compounds. After 24 hours of incubation, two plates of each cell line were fixed in situ with trichloroacetic acid (TCA) to represent a measurement of the cell population for each cell line at the time of compound addition (Tz). The compounds were solubilized in dimethyl sulfoxide at 400-fold the desired final maximum test concentration and stored frozen prior to use. At the time of drug addition, frozen aliquots of the compounds thawed and diluted with complete medium containing 50 μg/ml gentamicin. Aliquots of 100 μl of these different compound dilutions were added to the appropriate microtiter wells already containing 100 μl of medium, resulting in the required final compound concentration of 10 μM. Following compound addition, the plates were incubated for an additional 48 h at 37° C., 5% carbon dioxide, 95% air, and 100% relative humidity. For adherent cells, the assay was terminated by the addition of cold TCA. Cells were fixed in situ by the gentle addition of 50 μl of cold 50% (w/v) TCA (final concentration, 10% TCA) and incubated for 60 minutes at 4° C. The supernatant was discarded, and the plates were washed five times with tap water and air dried. Sulforhodamine B (SRB) solution (100 μl) at 0.4% (w/v) in 1% acetic acid was added to each well, and plates were incubated for 10 minutes at room temperature. After staining, unbound dye was removed by washing five times with 1% acetic acid and the plates were air dried. Bound stain was subsequently solubilized with 10 mM trizma base, and the absorbance was read on an automated plate reader at a wavelength of 515 nm. For suspension cells, the methodology was the same except that the assay was terminated by fixing settled cells at the bottom of the wells by gently adding 50 μl of 80% TCA (final concentration, 16% TCA). Using the three absorbance measurements [time zero, (Tz), control growth, (C), and test growth in the presence of compound (Ti)], the percentage growth was calculated at each of the compound concentrations levels. Percentage growth inhibition was calculated with the following algorithms: [(Ti−Tz)/(C−Tz)]×100 for concentrations for which Ti>/=Tz [(Ti−Tz)/Tz]×100 for concentrations for which Ti<Tz The results of the NCl in vitro anticancer screening with six compounds against various human tumor cell lines are presented below in Tables 2-7. […] The growth percent mean, delta, and range for each compound are given below.

HS 578T = settings: Breast Cancer, 10 μM, 48 h
Method: as §1

BT-549 = settings: Breast Cancer, 10 μM, 48 h
Method: as §1

LOX IMVI = settings: Melanoma, 10 μM, 48 h
Method: as §1

EKVX = settings: Non-Small Cell Lung Cancer, 10 μM, 48 h
Method: as §1

SK-MEL-5 = settings: Melanoma, 10 μM, 48 h
Method: as §1

SR = settings: Leukemia, 10 μM, 48 h
Method: as §1

MOLT-4 = settings: Leukemia, 10 μM, 48 h
Method: as §1

HCT-15 = settings: Colon Cancer, 10 μM, 48 h
Method: as §1

T-47D = settings: Breast Cancer, 10 μM, 48 h
Method: as §1

MDA-MB-231/ATCC = settings: Breast Cancer, 10 μM, 48 h
Method: as §1

SK-MEL-2 = settings: Melanoma, 10 μM, 48 h
Method: as §1

UACC-62 = settings: Melanoma, 10 μM, 48 h
Method: as §1

UACC-257 = settings: Melanoma, 10 μM, 48 h
Method: as §1

SF-295 = settings: CNS Cancer, 10 μM, 48 h
Method: as §1

SK-MEL-28 = settings: Melanoma, 10 μM, 48 h
Method: as §1

SNB-75 = settings: CNS Cancer, 10 μM, 48 h
Method: as §1

SNB-19 = settings: CNS Cancer, 10 μM, 48 h
Method: as §1

NCI-H23 = settings: Non-Small Cell Lung Cancer, 10 μM, 48 h
Method: as §1

SW-620 = settings: Colon Cancer, 10 μM, 48 h
Method: as §1

HT29 = settings: Colon Cancer, 10 μM, 48 h
Method: as §1

SN12C = settings: Renal Cancer, 10 μM, 48 h
Method: as §1

HOP-62 = settings: Non-Small Cell Lung Cancer, 10 μM, 48 h
Method: as §1

OVCAR-3 = settings: Ovarian Cancer, 10 μM, 48 h
Method: as §1

K-562 = settings: Leukemia, 10 μM, 48 h
Method: as §1

HOP-92 = settings: Non-Small Cell Lung Cancer, 10 μM, 48 h
Method: as §1

MDA-MB-435 = settings: Breast Cancer, 10 μM, 48 h
Method: as §1

SK-OV-3 = settings: Ovarian Cancer, 10 μM, 48 h
Method: as §1

COLO 205 = settings: Colon Cancer, 10 μM, 48 h
Method: as §1

HCC-2998 = settings: Colon Cancer, 10 μM, 48 h
Method: as §1

CCRF-CEM = settings: Leukemia, 10 μM, 48 h
Method: as §1

OVCAR-8 = settings: Ovarian Cancer, 10 μM, 48 h
Method: as §1

SMILES | Growth Percent (TK-10) | Growth Percent (HS 578T) | Growth Percent (BT-549) | Growth Percent (LOX IMVI) | Growth Percent (EKVX) | Growth Percent (SK-MEL-5) | Growth Percent (SR) | Growth Percent (MOLT-4) | Growth Percent (HCT-15) | Growth Percent (T-47D) | Growth Percent (MDA-MB-231/ATCC) | Growth Percent (SK-MEL-2) | Growth Percent (UACC-62) | Growth Percent (UACC-257) | Growth Percent (SF-295) | Growth Percent (SK-MEL-28) | Growth Percent (SNB-75) | Growth Percent (SNB-19) | Growth Percent (NCI-H23) | Growth Percent (SW-620) | further results
CC1CCC2C(C)C(OCc3ccc(C(=O)NN=Cc4ccccc4O)o3)OC3OC4(C)CCC1C32OO4 (centres unmarked) [ART-Furan-Sal, N′-(2-hydroxybenzylidene)-5-(dihydroxyartemisinin-methyl)-furan-2-carbohydrazide] | 40.77% | 40.07% | 22.47% | 0.03% | 25.37% | −46.62% | −29.47% | −23.49% | 30.86% | 10.28% | 31.58% | −27.21% | −5.97% | 9.72% | 12.70% | 16.46% | −17.31% | 25.11% | 17.54% | 13.95% | Growth Percent (HT29): 22.40%; Growth Percent (SN12C): 27.18%; Growth Percent (HOP-62): 12.94%; Growth Percent (OVCAR-3): 30.23%; Growth Percent (K-562): 8.79%; Growth Percent (HOP-92): 37.02%; Growth Percent (MDA-MB-435): 25.70%; Growth Percent (SK-OV-3): 14.53%; Growth Percent (COLO 205): 18.60%; Growth Percent (HCC-2998): 5.37%; Growth Percent (CCRF-CEM): −23.63%; Growth Percent (OVCAR-8): 17.07%
CC1CCC2C(C)C(OCCn3cc(C(=O)NN=Cc4ccccc4O)nn3)OC3OC4(C)CCC1C32OO4 (centres unmarked) [ART-Triazole-Sal, N′-(2-hydroxybenzylidene)-1-(dihydroxyartemisinin-ethyl)-1H-1,2,3-triazole-4-carbohydrazide] | 38.15% | 48.29% | 40.56% | 6.87% | 35.04% | 12.45% | 0.08% | −0.29% | 34.01% | 37.45% | 52.54% | −15.86% | 10.70% | 19.39% | 24.32% | 27.59% | −8.40% | 45.73% | 30.70% | 31.03% | Growth Percent (HT29): 31.44%; Growth Percent (SN12C): 45.26%; Growth Percent (HOP-62): 24.18%; Growth Percent (OVCAR-3): 50.36%; Growth Percent (K-562): 17.31%; Growth Percent (HOP-92): 44.42%; Growth Percent (MDA-MB-435): 35.26%; Growth Percent (SK-OV-3): 32.87%; Growth Percent (COLO 205): 26.05%; Growth Percent (HCC-2998): 25.98%; Growth Percent (CCRF-CEM): −14.86%; Growth Percent (OVCAR-8): 25.82%
Cc1ncc(CO)c(C=NNC(=O)c2ccc(COC3OC4OC5(C)CCC6C(C)CCC(C3C)C46OO5)cc2)c1O (centres unmarked) [ART-Phe-Pyridoxal, N′-(5-hydroxy-3-hydroxymethyl-2-methyl-4-pyridylidene)-4-(dihydroxyartemisinin-methyl)-phenyl carbohydrazide] | 6.35% | −15.69% | −18.57% | 4.22% | 12.34% | −43.83% | −29.75% | −25.71% | 15.22% | −2.71% | 29.96% | 20.14% | −8.10% | 1.40% | 25.08% | −7.02% | 42.44% | 4.26% | 13.86% | 14.32% | Growth Percent (HT29): 32.72%; Growth Percent (SN12C): 16.82%; Growth Percent (HOP-62): 20.25%; Growth Percent (OVCAR-3): 19.87%; Growth Percent (K-562): 22.86%; Growth Percent (HOP-92): 20.97%; Growth Percent (MDA-MB-435): 18.74%; Growth Percent (SK-OV-3): −4.66%; Growth Percent (COLO 205): −4.40%; Growth Percent (HCC-2998): 27.38%; Growth Percent (CCRF-CEM): 2.34%; Growth Percent (OVCAR-8): 31.40%
CC1CCC2C(C)C(OCc3ccc(C(=O)NN=Cc4ccccc4O)nc3)OC3OC4(C)CCC1C32OO4 (centres unmarked) [ART-Pyr-Sal, N′-(2-hydroxybenzylidene)-5-(dihydroxyartemisinin-methyl)-2-pyridine carbohydrazide] | 31.03% | 19.38% | 15.65% | 2.20% | 32.52% | −18.98% | −30.14% | 10.13% | 21.89% | 12.21% | 50.08% | −23.42% | 7.61% | 6.22% | 4.52% | 29.92% | −6.97% | 20.71% | 16.47% | 26.43% | Growth Percent (HT29): 29.61%; Growth Percent (SN12C): 22.81%; Growth Percent (HOP-62): 20.73%; Growth Percent (OVCAR-3): 35.18%; Growth Percent (K-562): 26.88%; Growth Percent (HOP-92): 30.70%; Growth Percent (MDA-MB-435): 30.18%; Growth Percent (SK-OV-3): 11.40%; Growth Percent (COLO 205): 30.63%; Growth Percent (HCC-2998): 4.91%; Growth Percent (CCRF-CEM): −17.26%; Growth Percent (OVCAR-8): 8.81%
